Molecules are shown by their SMILES.

Experimental findings from patent US10703757B2, “Compounds and methods for CDK8 modulation and indications therefor” (Plexxikon Inc., priority 2016, dated 2020) are described below.

Assay [1] has as its system CDK8 (phosphorylation of STAT1 at serine 727 in A549 cells). The experiment in a line: Cell based Phospho-STAT1 assay (IFNγ-stimulated A549 cells, AlphaLISA). Conditions: Homo sapiens, A549, A549 cells, phospho-STAT1 after IFNγ stimulation. An outline of the steps:
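A549 cells given serial compound dilutions for 1 h at 37 °C, then stimulated with IFNγ at 10 ng/mL final for 30 min. Lysate STAT1 Ser727 phosphorylation measured by AlphaLISA; % inhibition vs stimulated/unstimulated DMSO controls, IC50 by nonlinear regression.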
A general note: Bead proximity is the source of the signal in Alpha formats.

Assay [2] relates to CDK8 (TCF/LEF luciferase reporter in HCT116 cells). The experiment in a line: Cell based TCF/LEF reporter assay (HCT116+TCF/LEF luciferase). The conditions noted are these: Homo sapiens, HCT-116, 24 h. An outline of the steps: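 HCT116 cells stably carrying a TCF/LEF-luciferase reporter (endogenous mutant β-catenin), seeded overnight, then exposed to serial compound dilutions for 24 h at 37 °C. Luminescence normalized to CellTiter-Fluor viability signal. % inhibition relative to DMSO and 10 uM CCT251545 controls, with IC50 from nonlinear regression.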
A general note: In a reporter assay the amount or activity of a reporter protein is the signal.

For `Cc1nc2ccc(-c3cnn4cccc(C#CC(C)(C)O)c34)cc2s1` [Compound P-0215, 2-methyl-4-(3-(2-methylbenzo[d]thiazol-6-yl)pyrazolo[1,5-a]pyridin-4-yl)but-3-yn-2-ol], the half-inhibitory concentration (IC50) in assay [1] and in assay [2] was 100 to 1000 nM each time.

In the case of `Cn1cc(-c2ccc(-c3cnn4cccc(C5=CCC(C(=O)N6CCC6)CC5)c34)cc2)cn1` (centres unmarked) [Compound P-0333, azetidin-1-yl-[4-[3-[4-(1-methylpyrazol-4-yl)phenyl]pyrazolo[1,5-a]pyridin-4-yl]cyclohex-3-en-1-yl]methanone], the IC50 in assay [1] and in assay [2] was 100 to 1000 nM each time.

Take `N#CC1(c2ccccc2)CCN(c2cccc3ncc(-c4ccc(-c5cnn(C(F)F)c5)cc4)n23)CC1` [Compound P-0322, 1-(3-(4-(1-(difluoromethyl)-1H-pyrazol-4-yl)phenyl)imidazo[1,2-a]pyridin-5-yl)-4-phenylpiperidine-4-carbonitrile]: the IC50 in assay [1] and in assay [2] was 100 to 1000 nM each time.

In the case of `CCn1cc(-c2ccc(-c3cnn4cccc(C#CC(C)(C)O)c34)cc2)cn1` [Compound P-0232, 4-(3-(4-(1-ethyl-1H-pyrazol-4-yl)phenyl)pyrazolo[1,5-a]pyridin-4-yl)-2-methylbut-3-yn-2-ol], the IC50 in assay [1] and in assay [2] was 0.1 to 100 nM in each case.

`N#CC1CC=C(c2nccn3ncc(-c4ccc(-c5cnn(CC6(C#N)CC6)c5)cc4)c23)CC1` (centres unmarked) [Compound P-0096, 4-(3-(4-(1-((1-cyanocyclopropyl)methyl)-1H-pyrazol-4-yl)phenyl)pyrazolo[1,5-a]pyrazin-4-yl)cyclohex-3-ene-1-carbonitrile]: the IC50 in assay [1] and in assay [2] was 0.1 to 100 nM in each case.

For `Cn1cc(C#Cc2cnc3cccc(N4CCC5(CC4)NCNC5=O)n23)cn1` [Compound P-0275, 8-(3-((1-methyl-1H-pyrazol-4-yl)ethynyl)imidazo[1,2-a]pyridin-5-yl)-1,3,8-triazaspiro[4.5]decan-4-one], the half-maximal inhibitory concentration (IC50) in assay [1] and in assay [2] was 100 to 1000 nM each time.

With `N#CC1CC=C(c2nccn3ncc(-c4ccc(OCCCN5CCCCC5)cc4)c23)CC1` (centres unmarked) [Compound P-0086, 4-(3-(4-(3-(piperidin-1-yl)propoxy)phenyl)pyrazolo[1,5-a]pyrazin-4-yl)cyclohex-3-ene-1-carbonitrile], the IC50 fell in the range of 0.1 to 100 nM in assay [1] and 100 to 1000 nM in assay [2].

In the case of `CC(C)(O)Cn1cc(-c2ccc(-c3cnn4ccnc(C5CCC(C#N)CC5)c34)cc2F)cn1` (centres unmarked) [Compound P-0032, (1s,4s)-4-(3-(3-fluoro-4-(1-(2-hydroxy-2-methylpropyl)-1H-pyrazol-4-yl)phenyl)pyrazolo[1,5-a]pyrazin-4-yl)cyclohexane-1-carbonitrile], the IC50 in assay [1] and in assay [2] was 0.1 to 100 nM throughout.

On to `COc1ccc(-c2cnn3ccnc(C4=CCC(C#N)CC4)c23)cc1Cl` (centres unmarked) [Compound P-0041, 4-(3-(3-chloro-4-methoxyphenyl)pyrazolo[1,5-a]pyrazin-4-yl)cyclohex-3-ene-1-carbonitrile], for which the 50% inhibitory concentration (IC50) in assay [1] and in assay [2] was 0.1 to 100 nM in each case.

As to `CC(C)(C#Cc1nccn2ncc(-c3ccc4cc(NS(C)(=O)=O)ccc4c3)c12)C(N)=O` [Compound P-0115, 2,2-dimethyl-4-(3-(6-(methylsulfonamido)naphthalen-2-yl)pyrazolo[1,5-a]pyrazin-4-yl)but-3-ynamide], the IC50 in assay [1] and in assay [2] was 0.1 to 100 nM in each case.

Consider `CC(C)(O)C#Cc1cccn2ncc(-c3ccc(-c4cccnc4)cc3)c12` [Compound P-0237, 2-methyl-4-(3-(4-(pyridin-3-yl)phenyl)pyrazolo[1,5-a]pyridin-4-yl)but-3-yn-2-ol], for which the IC50 in assay [1] and in assay [2] was 0.1 to 100 nM each time.

Consider `N#CC1CC=C(c2nccn3ncc(-c4ccc(OCCOC5CCS(=O)(=O)CC5)cc4)c23)CC1` (centres unmarked) [Compound P-0057, 4-(3-(4-(2-((1,1-dioxidotetrahydro-2H-thiopyran-4-yl)oxy)ethoxy)phenyl)pyrazolo[1,5-a]pyrazin-4-yl)cyclohex-3-ene-1-carbonitrile], for which the IC50 in assay [1] and in assay [2] was 0.1 to 100 nM each time.

Regarding `CCCS(=O)(=O)Nc1ccc2cc(-c3cnn4ccnc(C#CC(C)(C)C(N)=O)c34)ccc2c1` [Compound P-0069, 2,2-dimethyl-4-(3-(6-(propylsulfonamido)naphthalen-2-yl)pyrazolo[1,5-a]pyrazin-4-yl)but-3-ynamide], the IC50 in assay [1] and in assay [2] was 0.1 to 100 nM in each case.

With `Cc1ccc(-c2cnn3ccnc(C4=CCC(C(N)=O)CC4)c23)cn1` (centres unmarked) [Compound P-0152, 4-(3-(6-methylpyridin-3-yl)pyrazolo[1,5-a]pyrazin-4-yl)cyclohex-3-ene-1-carboxamide], the IC50 in assay [1] was in the range of 100 to 1000 nM; in assay [2] it was 0.1 to 100 nM.

Turning to `N#CC1CCN(c2c(-c3ccc(-c4cnn(CC(F)(F)F)c4)cc3)cnc3[nH]ccc23)CC1` [Compound P-0174, 1-(5-(4-(1-(2,2,2-trifluoroethyl)-1H-pyrazol-4-yl)phenyl)-1H-pyrrolo[2,3-b]pyridin-4-yl)piperidine-4-carbonitrile], the half-maximal inhibitory concentration (IC50) in assay [1] and in assay [2] was 0.1 to 100 nM throughout.

Regarding `N#CC1CC=C(c2nccn3ncc(-c4ccc(OCC5CC5)c(Cl)c4)c23)CC1` (centres unmarked) [Compound P-0038, 4-(3-(3-chloro-4-(cyclopropyl-methoxy)phenyl)pyrazolo[1,5-a]pyrazin-4-yl)cyclohex-3-ene-1-carbonitrile], the IC50 in assay [1] and in assay [2] was 0.1 to 100 nM throughout.

For the compound `N#CCCn1cc(-c2ccc(-c3cnn4ccnc(C5=CCC(C#N)CC5)c34)cc2)cn1` (centres unmarked) [Compound P-0100, 4-(3-(4-(1-(2-cyanoethyl)-1H-pyrazol-4-yl)phenyl)pyrazolo[1,5-a]pyrazin-4-yl)cyclohex-3-ene-1-carbonitrile], the IC50 in assay [1] and in assay [2] was 0.1 to 100 nM in each case.

As for `N#CC1CC=C(c2cccn3ncc(-c4ccc(OCC(O)CN5CCOCC5)cc4)c23)CC1` (centres unmarked) [Compound P-0178, 4-(3-(4-(2-hydroxy-3-morpholinopropoxy)phenyl)pyrazolo[1,5-a]pyridin-4-yl)cyclohex-3-ene-1-carbonitrile], the half-inhibitory concentration (IC50) in assay [1] and in assay [2] was 0.1 to 100 nM each time.

As for `N#CC1CCC(c2cccn3ncc(-c4ccc(-n5cccn5)cc4)c23)CC1` (centres unmarked) [Compound P-0218, 4-(3-(4-(1H-pyrazol-1-yl)phenyl)pyrazolo[1,5-a]pyridin-4-yl)cyclohexane-1-carbonitrile], the 50% inhibitory concentration (IC50) in assay [1] and in assay [2] was 0.1 to 100 nM throughout.

As for `N#CC1CCN(c2c(-c3ccc4c(c3)NC(=O)C4)cnc3[nH]ccc23)CC1` [Compound P-0189, 1-(5-(2-oxoindolin-6-yl)-1H-pyrrolo[2,3-b]pyridin-4-yl)piperidine-4-carbonitrile], the IC50 in assay [1] and in assay [2] was 0.1 to 100 nM each time.

Take `CC(C)(O)Cn1cc(-c2ccc(-c3cnn4ccnc(C5CCC(C#N)CC5)c34)cc2Cl)cn1` (centres unmarked) [Compound P-0031, (1s,4s)-4-(3-(3-chloro-4-(1-(2-hydroxy-2-methylpropyl)-1H-pyrazol-4-yl)phenyl)pyrazolo[1,5-a]pyrazin-4-yl)cyclohexane-1-carbonitrile]: the IC50 in assay [1] and in assay [2] was 0.1 to 100 nM in each case.

Take `N#CC1CC=C(c2nccn3ncc(-c4ccc(-c5cnn(CC6CC6)c5)cc4)c23)CC1` (centres unmarked) [Compound P-0034, 4-(3-(4-(1-(cyclopropylmethyl)-1H-pyrazol-4-yl)phenyl)pyrazolo[1,5-a]pyrazin-4-yl)cyclohex-3-ene-1-carbonitrile]: the half-inhibitory concentration (IC50) in assay [1] and in assay [2] was 0.1 to 100 nM each time.

As to `Cn1cc(-c2ccc(-c3cnc4[nH]ccc4c3N3CCC4(CC3)C(=O)Nc3ccccc34)cc2)cn1` [Compound P-0272, 1′-(5-(4-(1-methyl-1H-pyrazol-4-yl)phenyl)-1H-pyrrolo[2,3-b]pyridin-4-yl)spiro[indoline-3,4′-piperidin]-2-one], the half-maximal inhibitory concentration (IC50) in assay [1] lay within 100 to 1000 nM; in assay [2], 0.1 to 100 nM.

For the compound `Cn1ncc2cc(-c3cnn4ccnc(C5=CCC(C#N)CC5)c34)ccc21` (centres unmarked) [Compound P-0324, 4-(3-(1-methyl-1H-indazol-5-yl)pyrazolo[1,5-a]pyrazin-4-yl)cyclohex-3-ene-1-carbonitrile], the IC50 in assay [1] and in assay [2] was 0.1 to 100 nM each time.

Consider `Cc1nc2ccc(-c3cnn4cccc(C5=CCC(C#N)CC5)c34)cc2s1` (centres unmarked) [Compound P-0214, 4-(3-(2-methylbenzo[d]thiazol-6-yl)pyrazolo[1,5-a]pyridin-4-yl)cyclohex-3-ene-1-carbonitrile], for which the IC50 in assay [1] and in assay [2] was 0.1 to 100 nM in each case.

As for `NC(=O)C1CC=C(c2cccn3ncc(-c4ccc(-n5cccn5)cc4)c23)CC1` (centres unmarked) [Compound P-0197, 4-(3-(4-(1H-pyrazol-1-yl)phenyl)pyrazolo[1,5-a]pyridin-4-yl)cyclohex-3-ene-1-carboxamide], the IC50 in assay [1] is 0.1 to 100 nM; in assay [2], 100 to 1000 nM.

`COc1ccc2cc(-c3cnn4cccc(C5=CCC(C#N)CC5)c34)ccc2n1` (centres unmarked) [Compound P-0242, 4-(3-(2-methoxyquinolin-6-yl)pyrazolo[1,5-a]pyridin-4-yl)cyclohex-3-ene-1-carbonitrile]: the IC50 in assay [1] and in assay [2] was 0.1 to 100 nM throughout.

Turning to `N#CC1CC=C(c2c(-c3ccc4c(c3)C(=O)NC4)cnc3[nH]ccc23)CC1` (centres unmarked) [Compound P-0207, 4-(5-(3-oxoisoindolin-5-yl)-1H-pyrrolo[2,3-b]pyridin-4-yl)cyclohex-3-ene-1-carbonitrile], the IC50 in assay [1] is 1000 to 10000 nM; in assay [2] it was 100 to 1000 nM.

One may read the IC50 as the point on the concentration scale where inhibition reaches its midpoint. Read a high IC50 as lower potency.
